Measured values as given in US20230126447A1, “OCULAR DRUG DEPOT FOR COMPLEMENT-MEDIATED DISORDERS” (priority 2020, published 2023).
Like-named read-outs stand apart in the source and are kept apart here.

Legend:
[1] = Ocular tissue distribution and pharmacokinetics, 15 mg/kg BID oral, nonpigmented New Zealand White rabbits (Example 7); assay type: in vivo
Protocol: For Groups 2 through 4, blood (approximately 2 mL) was collected via a jugular vein using a syringe and needle and was transferred into tubes containing K2EDTA at approximately 12 hours after the a.m. dose on Day 15 from the two animals designated for sacrifice at approximately 240 hours after the a.m. dose on Day 15. For Groups 2 through 4, two animals/group/time point were sacrificed via an overdose of sodium pentobarbital prior to dosing on Day 15 and at approximately 1, 6, 24, 96, 168, and 240 hours after the a.m. dose on Day 15. Blood (approximately 2 mL) was collected from all animals at sacrifice into tubes containing K2EDTA via exsanguination (cardiac puncture). Blood was maintained on wet ice, in chilled cryoracks, or at approximately 5° C. prior to centrifugation to obtain plasma. Centrifugation began within 1 hour of collection (Deviation). Plasma was placed into 96-well tubes with barcode labels. Plasma was maintained on dry ice prior to storage at approximately −70° C. At the time of sacrifice, both eyes were enucleated, and the following tissues were collected. Each eye was flash-frozen in liquid nitrogen for 15 to 20 seconds. The enucleated eye was placed on dry ice or stored at approximately −70° C. for at least 2 hours. Within approximately 3 days, the frozen matrices were collected as right and left eyes for each matrix into the specific tube type listed. At the time of frozen collection, the ocular tissues were rinsed with saline and blotted dry (as appropriate), weighed, and placed on dry ice. All ocular tissues were collected as single samples.

[2] = Stability under melanin binding assay conditions; settings: 1 h
Protocol: […] The melanin solution was stored in the dark at 37° C. until use.
The assay plates containing samples with and without melanin were incubated in the dark with shaking at 37° C. for 1 hour. Following incubation, the samples were centrifuged for 15 minutes at approximately 4000 rpm at 37° C. to sediment the melanin. Sample supernatant (3 μL) was added to 100 μL of acetonitrile containing the internal standard and then diluted with water (197 μL).
% Stability=Mean Total Conc. (μM) after 1 Hour/Mean Total Conc. (μM) at Time Zero×100%

[3] = Choroid-RPE (OU), male NZW rabbits, Group 4, Day 15, 15 mg/kg/dose BID oral (30 mg/kg/day)
[4] = ICB (OU), male NZW rabbits, Group 4, Day 15, 15 mg/kg/dose BID oral (30 mg/kg/day)
[5] = NZW rabbits, Day 15, 15 mg/kg BID, 96 hr
[6] = NZW rabbits, Day 15, 15 mg/kg BID, 168 hr
[7] = NZW rabbits, Day 15, 15 mg/kg BID, 240 hr
[8] = New Zealand White, rabbit, choroid-RPE, oral, NZW rabbits, Day 15, 15 mg/kg BID, read-out: Mean Choroid-RPE Concentration
[9] = New Zealand White, rabbit, iris-ciliary body, oral, NZW rabbits, Day 15, 15 mg/kg BID, read-out: Mean Iris-Ciliary Concentration
[10] = New Zealand White, rabbit, plasma, oral, NZW rabbits, Day 15, 15 mg/kg BID, read-out: Mean Plasma Concentration
[11] = New Zealand White, rabbit, retina, oral, NZW rabbits, Day 15, 15 mg/kg BID, read-out: Mean Retina Concentration
[12] = New Zealand White, rabbit, plasma, male NZW rabbits, Group 4, Day 15, 15 mg/kg/dose BID oral (30 mg/kg/day)
[13] = Retina (OU), male NZW rabbits, Group 4, Day 15, 15 mg/kg/dose BID oral (30 mg/kg/day)
[14] = plasma, male NZW rabbits, Group 4, Day 15, 15 mg/kg/dose BID oral (30 mg/kg/day)

## CC(=O)c1nn(CC(=O)N2C[C@H](F)C[C@H]2C(=O)Nc2cccc(Br)n2)c2ccc(-c3cnc(C)nc3)cc12 [Compound 1, (2S,4R)-1-(2-(3-Acetyl-5-(2-methylpyrimidin-5-yl)-1H-indazol-1-yl)acetyl)-N-(6-bromopyridin-2-yl)-4-fluoropyrrolidine-2-carboxamide]
[1]; [3]
  AUC0-12: 1440 ng·h/g
  AUC0-240: 2370 ng·h/g
  AUC(0-24): 1830 ng·h/g
  AUC(0-t): 1830 ng·h/g
  Ctrough: 50.7 ng/g
  DN AUC0-12: 95.9 (h*ng/g)/(mg/kg/dose)
  DN AUC0-24: 122 (h*ng/g)/(mg/kg/day)
  DN AUC0-240: 158 (h*ng/g)/(mg/kg/day)
  DN Cmax: 19.8 (ng/g)/(mg/kg/day
[1]; [4]
  AUC0-12: 356 ng·h/g
  AUC(0-24): 453 ng·h/g
  AUC(0-t): 453 ng·h/g
  Ctrough: 14.6 ng/g
  DN AUC0-12: 23.7 (h*ng/g)/(mg/kg/dose)
  DN AUC0-24: 30.2 (h*ng/g)/(mg/kg/day)
  DN Cmax: 4.33 (ng/g)/(mg/kg/day)
[1]; [5]
  Mean Choroid-RPE concentration: BLQ
  Mean plasma concentration: BLQ
  Mean retina concentration: BLQ
[1]; [6]
  Mean Choroid-RPE concentration: BLQ
  Mean plasma concentration: BLQ
  Mean retina concentration: BLQ
[1]; [7]
  Mean Choroid-RPE concentration: BLQ
  Mean plasma concentration: BLQ
  Mean retina concentration: BLQ
[1]; [8]
  concentration at 0 h: 40.3 ng/g
  concentration at 1 h: 296 ng/g
  concentration at 6 h: 68.6 ng/g
  concentration at 24 h: 14.9 ng/g
[1]; New Zealand White, rabbit, choroid-retinal pigment epithelium (choroid-RPE), Choroid-RPE (OU), male NZW rabbits, Group 4, Day 15, 15 mg/kg/dose BID oral (30 mg/kg/day)
  Tmax: 1 h
[1]; New Zealand White, rabbit, iris-ciliary body (ICB), ICB (OU), male NZW rabbits, Group 4, Day 15, 15 mg/kg/dose BID oral (30 mg/kg/day)
  Tmax: 1 h
[1]; New Zealand White, rabbit, iris-ciliary body (ICB), ICB (OU), male NZW rabbits, Group 4, Day 15, 15 mg/kg/dose BID oral (30 mg/kg/day), read-out: Cmax
  Cmax: 64.9 ng/g
[1]; [9]
  concentration at 1 h: 64.9 ng/g
  concentration at 6 h: 21.2 ng/g
  concentration at 24 h: 1.6 ng/g
[1]; [10]
  concentration at 0 h: 53.8 ng/mL
  concentration at 1 h: 558 ng/mL
  concentration at 6 h: 179 ng/mL
  concentration at 24 h: 11.7 ng/mL
[1]; New Zealand White, rabbit, plasma, oral, NZW rabbits, Day 15, 15 mg/kg BID, 12 hr
  concentration at 12 h: 82.2 ng/mL
[1]; [11]
  concentration at 0 h: 36.3 ng/g
  concentration at 1 h: 248 ng/g
  concentration at 6 h: 86.1 ng/g
  concentration at 24 h: 9.18 ng/g
[1]; New Zealand White, rabbit, Retina (OU), male NZW rabbits, Group 4, Day 15, 15 mg/kg/dose BID oral (30 mg/kg/day)
  Tmax: 1 h
[1]; [12]
  Tmax: 1 h
  half-life: 4.53 h
[1]; [13]
  AUC0-12: 1420 ng·h/g
  AUC0-240: 2160 ng·h/g
  AUC(0-24): 1830 ng·h/g
  AUC(0-t): 1830 ng·h/g
  Ctrough: 60.4 ng/g
  DN AUC0-12: 94.4 (h*ng/g)/(mg/kg/dose)
  DN AUC0-24: 122 (h*ng/g)/(mg/kg/day)
  DN AUC0-240: 144 (h*ng/g)/(mg/kg/day)
  DN Cmax: 16.5 (ng/g)/(mg/kg/day)
[1]; male, New Zealand White, rabbit, plasma, po, 15 mg/kg, plasma, male NZW rabbits, Group 4, Day 15, 15 mg/kg/dose BID oral (30 mg/kg/day), read-out: AUC0-12
  AUC(0-t): 2930 ng·h/mL
[1]; male, New Zealand White, rabbit, plasma, po, 15 mg/kg, plasma, male NZW rabbits, Group 4, Day 15, 15 mg/kg/dose BID oral (30 mg/kg/day), read-out: AUC0-240
  AUC(0-t): 3910 ng·h/mL
[1]; male, New Zealand White, rabbit, plasma, po, 15 mg/kg, plasma, male NZW rabbits, Group 4, Day 15, 15 mg/kg/dose BID oral (30 mg/kg/day), read-out: AUC0-t
  AUC(0-t): 3490 ng·h/mL
[1]; [14]
  Cmax: 558 ng/mL
  Ctrough: 82.2 ng/mL
  DN AUC0-12: 195 (h*ng/mL)/(mg/kg/dose)
  DN AUC0-24: 233 (h*ng/mL)/(mg/kg/day)
  DN AUC0-240: 261 (h*ng/mL)/(mg/kg/day)
  DN Cmax: 37.2 (ng/mL)/(mg/kg/day)
[2]
  Mean Stability: 94.3%
